From US20220402980A1, “CHROMOGRANIN A-DERIVED PEPTIDES AND USES THEREOF” (OSPEDALE SAN RAFFAELE S.R.L., priority 2019, published 2022) come the findings set out here.

Where a SMILES comes first, the peptide text is derived from it.

In data set [1] the target is T1, αvβ5 (Homo sapiens, UniProt P06756+P18084).
T1 construct: purchased Immunological Sciences (Rome, Italy)
As to the kind of experiment: Competitive integrin binding assay (isoDGR/STV-HRP probe), αvβ5-coated plates. The conditions noted are these: Table 3a; ± standard error of the mean. As for the experimental part:
(§1) Peptide binding was measured by a competitive binding assay using as integrin probe a complex made by a N-terminal acetylated isoDGR peptide biotinylated at the E-amino group of the lysine, acetyl-Ciso[…]-bio (SEQ ID No. 29), and a streptavidin-peroxidase conjugate (called isoDGR/STV-HRP)[43].
(§2) Each mixture was then added to integrin-coated wells and left to incubate for 2 h at room temperature. After washing with 25 mM Tris-HCl, pH 7.4, containing 150 mM sodium chloride, 1 mM magnesium chloride, 1 mM manganese chloride, each well was filled with a chromogenic solution (o-phenylenediamine dihydrochloride) and left to incubate for 30 min at room temperature. The chromogenic reaction was stopped by adding 1 N sulfuric acid. The absorbance at 490 nm was then measured using a microtiterplate reader. Ki values were calculated by non-linear regression analysis of competitive binding data using the “One site - Fit Ki” equation of the GraphPad Prism Software using the Kd values of the probe indicated above.

Data set [2] has as its system human bladder carcinoma 5637 cells. Put plainly: 5637 cell viability (PrestoBlue). The conditions noted are these: 48 h. Type of data set: cell-based. As for the experimental part:
FIG. 12. Effect of peptides 4 and 5 on human bladder carcinoma 5637 cell viability. 5637 cells were seeded in a 96-well microtiterplate (20,000 cell/well) and cultured for 16 h at 37° C., 5% CO2. The day after the indicated doses of peptide 4 and 5 were added to the cells and left to incubate for additionally 48 h at 37° C., 5% CO2. Cell viability was assessed using the PrestoBlue* cell viability reagent (ThermoFisher) according to the manufacturer's instructions. Viability of the treated cells was normalized to that of untreated cells and is reported as a percentage (mean±SE of triplicate wells).

The target in data set [3] is T2, αvβ6 on human keratinocytes (HaCat) (Homo sapiens, UniProt P06756+P18564).
T2 construct: endogenous in cells; host or cells: human skin keratinocytes HaCaT
As to the kind of experiment: Effect of peptides on binding of anti-αvβ6 mAb 10D5 to HaCaT cells (FACS). The conditions noted are these: competition with mAb 10D5. It is filed as cell-based.

The nature of data set [4]: Peptide stability in mouse liver microsomal preparations (RP-HPLC). Type of data set: in vitro ADME. The conditions noted are these: C57BL/6, mouse, liver microsomes; 37° C.; read-out: t1/2 in mouse liver microsomes (converted). As for the experimental part: FIG. 14. Stability of peptides 4 and 5 in murine liver microsomes as determined by RP-HPLC. a) RP-HPLC of 4 and 5 after incubation at 37° C. in murine liver microsomes. Peak 1 corresponds to 4 and 5. The peptides were added to murine liver microsomes (454 - μg/ml, final concentration) and incubated for the indicated time, diluted with an equal volume of 90% acetonitrile containing 0.1% TFA and analyzed onto a LiChrospher C18 column (16 ag). No peptide indicates liver microsome aliquot without the peptide. b) Quantification of Peak 1 area (left panel) and height (right panel) of the indicated peptides. The corresponding half-life is also shown.
The stability of compound 4 and 5 in mouse liver microsomal preparations was assessed by HPLC analysis. To this aim microsomes were prepared as follows: 11 g of mouse liver tissue (C57BL/6 mice) was homogenized in cold PBS supplemented with 0.25 M sucrose (3 ml/g of tissue) using a Potter-Elvehjem homogenizer (10 strokes), followed by additional homogenization using a rotor-stator homogenizer (40 sec). The homogenate was filtered through 70 pm cell-strainers, centrifuged three times to remove insoluble materials (500 x g, 5 min; 3000 x g, 30 min; 110000 x g, 90 min, 4° C.). […] Protein concentration was measured by measuring the absorbance at 280 nm with a NanoDrop spectrophotometer (Thermo Scientific). […]

For data set [5], the target named is T3, αvβ6 (Homo sapiens, UniProt P06756+P18564).
T3 construct: recombinant human αvβ6 extracellular domain (R&D Systems); purchased R&D Systems (Minneapolis, Minn.)
As to the kind of experiment: Competitive integrin binding assay (isoDGR/STV-HRP probe), αvβ6-coated plates. Conditions: Table 3a and text; ± standard error of the mean; read-out: Ki αvβ6. As for the experimental part: as §1, §2

In data set [6] the target is T4, αvβ6 on human bladder cancer 5637 cells (Homo sapiens, UniProt P06756+P18564).
T4 construct: cell-surface expressed αvβ6 on human bladder cancer 5637 cells; host or cells: human bladder cancer 5637 cells
As to the kind of experiment: Effect of peptides on binding of anti-αvβ6 mAb 10D5 to 5637 cells (FACS). It is filed as cell-based. Conditions: competition with mAb 10D5.

For data set [7], the target named is αvβ8 (Homo sapiens, UniProt P06756+P26012). As to the kind of experiment: Competitive integrin binding assay (isoDGR/STV-HRP probe), αvβ8-coated plates. Conditions: Table 3a and text; ± standard error of the mean; read-out: Ki αvβ8. As for the experimental part:
as §1, §2

Data set [8] has as its target T5, α5β1 (Homo sapiens, UniProt P05556+P08648).
T5 construct: purchased Immunological Sciences (Rome, Italy)
As to the kind of experiment: Competitive integrin binding assay (isoDGR/STV-HRP probe), α5β1-coated plates. As for the experimental part: as §1, §2

Turning to `CC[C@H](C)[C@H](NC(=O)[C@H](CCCNC(=N)N)NC(=O)[C@H](CC(C)C)NC(=O)[C@H](CC(=O)O)NC(=O)CNC(=O)[C@H](CCCNC(=N)N)NC(=O)[C@H](CC(C)C)NC(=O)[C@@H](NC(=O)[C@H](CCC(=O)O)NC(=O)[C@@H](N)Cc1ccccc1)[C@@H](C)O)C(=O)N[C@@H](CC(C)C)C(=O)N[C@@H](CO)C(=O)N[C@H](C(=O)N[C@@H](CC(C)C)C(=O)N[C@@H](CCCNC(=N)N)C(=O)N[C@@H](Cc1c[nH]cn1)C(=O)N[C@@H](CCC(N)=O)C(=O)N[C@@H](CC(N)=O)C(=O)N[C@@H](CC(C)C)C(=O)N[C@@H](CC(C)C)C(=O)N[C@@H](CCCCN)C(=O)N[C@@H](CCC(=O)O)C(=O)N[C@@H](CC(C)C)C(=O)N[C@@H](CCC(N)=O)C(=O)N[C@@H](CC(=O)O)C(=O)O)[C@@H](C)CC` [peptide 4] (H-FETLRGDLRILSILRHQNLLKELQD-OH; N-terminus and C-terminus assumed), the figures for the Ki in data set [1], in data set [5] and in data set [7] were 2410 ± 1590 nM, 1.6 ± 0.3 nM and 8.5 ± 3.7 nM, respectively. The cytotoxicity in vitro entry in data set [2] was “not cytotoxic”. For the same compound, the “binding to cell-surface expressed αvβ6” value in data set [3] and in data set [6] was “bound cell-surface expressed αvβ6” in each case. In data set [4], the half-life at 454 μg/ml was 1.3 h.
In the case of `CC(C)C[C@H](NC(=O)[C@H](CC(=O)O)NC(=O)CNC(=O)[C@H](CCCNC(=N)N)NC(=O)[C@H](CC(C)C)NC(=O)[C@H](CC(N)=O)NC(=O)[C@@H]1CCCN1C(=O)[C@@H](NC(=O)[C@H](C)NC(=O)[C@@H](N)CC(N)=O)C(C)C)C(=O)N[C@@H](CCC(N)=O)C(=O)N[C@H](C(=O)N[C@@H](CC(C)C)C(=O)N[C@@H](C)C(=O)N[C@@H](CCC(N)=O)C(=O)N[C@@H](CCCCN)C(=O)N[C@H](C(=O)N[C@@H](C)C(=O)N[C@@H](CCCNC(=N)N)C(=O)N[C@H](C(=O)O)[C@@H](C)O)C(C)C)C(C)C` [peptide 6], the Ki in data set [8] worked out at 2317 ± 10 nM.
